Where “and” joins values, the source holds several entries; their conditions need not be identical. Identical values can stand only once. Like-named read-outs stand apart in the source and are kept apart here.
How the values were obtained:
healthy volunteers [1] = tested on: healthy volunteers
Method: (§1) These studies were approved by the Human Research Committee at the Massachusetts General Hospital. All subjects provided informed consent and were American Society of Anesthesiology Physical Status I with Mallampati Class I airway anatomy. […] We administered a urine pregnancy test for each female subject to confirm that they were not pregnant. Before the start of the study, we required subjects to take nothing by mouth for at least 8 hours. […] We maintained each target effect-site concentration level for 14 min. […] Volunteers were instructed to close their eyes throughout the study to avoid eye-blink artifacts in the electroencephalogram. Volunteers were presented with auditory stimuli during the study and asked to respond by button presses to assess the level of conscious behavior. […] Verbal stimuli consisted either of the subject's name or a word randomized with an equal number of name or word stimuli at each level. The click train was delivered binaurally, with 40-Hz clicks in the left ear and 84-Hz clicks in the right ear. Subjects were instructed to press one button if they heard their name and to press the other button if they heard any other stimulus. Stimuli were recorded at a sampling rate of 44.1 kHz and were presented using Presentation software (Neurobehavioral Systems, Inc., Berkeley, Calif.) with ear-insert headphones (ER2; Etymotic Research, Elk Grove Village, Ill.) at ˜81 decibels peak sound pressure level. Button-press stimuli were recorded using a custom-built computer mouse with straps fitted to hold the first and second fingers in place over the mouse buttons. The mouse was also lightly strapped to the subject's hand using tape and an arterial line board to ensure that responses could be recorded accurately.
(§2) Electroencephalogram data segments were selected based on the behavioral response.
(§3) For each volunteer subject, TM electroencephalogram epochs were chosen that occurred within the first 2-minutes of the onset of this pattern. […] For each volunteer subject, PM electroencephalogram epochs were chosen that occurred within the first 2-minutes of the onset of this pattern.

[2] = tested on: patients undergoing light sedation with dexmedetomidine, sedation with propofol and general anesthesia with propofol; conditions: intraoperative frontal EEG
healthy volunteers [3] = tested on: healthy volunteers; remark: listed apart in the source
Method: as §1
(§4) An anti-aliasing filter was applied and the EEG data was downsampled to 250 Hz before analysis. EEG signals were re-montaged to a nearest-neighbor Laplacian reference, using distances along the scalp surface to weigh neighboring electrode contributions.
(§5) First, 2-minute EEG segments were selected from all subjects during the awake, eyes closed baseline. Eye closure facilitates distinguishing between normal awake, eyes-closed occipital alpha oscillations and the frontal alpha oscillations associated with anesthesia induced altered arousal.
as §2, §3
The coherence quantifies the degree of correlation between two signals at a given frequency. […] The coherence Cxy(f) function between two signals x and y is defined as:
[formula] where Sxy(f) is the cross-spectrum between the signals x(t) and y(t), Sxx(f) is the power spectrum of the signal x(t) and Syy(f) is the power spectrum of the signal y(t). Similar to the spectrum and spectrogram, the coherence can be estimated as a time-varying quantity called the coherogram.

healthy volunteers [4] = tested on: healthy volunteers; remark: listed apart in the source
Method: as §1, §4, §5, §2, §3
The power spectral density, also referred to as the power spectrum or spectrum, quantifies the frequency distribution of energy or power within a signal. The spectrogram is a time-varying version of the spectrum. […] In these spectrograms, frequencies are arranged along the y-axis, and time along the x-axis, and power is indicated by color on a decibel (dB) scale. […] Spectra and spectrograms were computed using the multitaper method, implemented in the Chronux toolbox.
Group-level spectrograms were computed by taking the median across volunteers.

[5] = Plethysmography and blood gas experiments; conditions: in vivo
From the text: For example, in accordance with one aspect of the present disclosure, methylphenidate (MPH) can be used as an inhibitor of dopamine and norepinephrine reuptake transporters and actively induces emergence from isoflurane general anesthesia. MPH can be used to restore consciousness, induce electroencephalogram changes consistent with arousal, and increase respiratory drive. The behavioral and respiratory effects induced by methylphenidate can be inhibited by droperidol, supporting the evidence that methylphenidate induces arousal by activating a dopaminergic arousal pathway.

[6] = tested on: patients undergoing general anesthesia; test: Intra-operative EEG during general anesthesia with sevoflurane as primary maintenance agent; assay type: in vivo, human
Method: In addition, to study the relationship between EEG dynamics in context of potential neural circuit mechanisms of an anesthetic vapor, intra-operative EEG were recorded from patients undergoing general anesthesia with sevoflurane as the primary maintenance agent, which is an ether derivative commonly used to maintain GA. […] Connectivity analysis was then performed on the EEG dynamics postulated to be involved in anesthesia-induce depression in consciousness. […] These observed similarities are consistent with present understanding of how EEG features relate to anesthesia-induced depression of consciousness, and provide a framework for further experimental studies on the neural circuit mechanisms of general anesthesia.

[7] = dexmedetomidine-induced unconsciousness
[8] = Propofol-induced unconsciousness (PM) epoch
[9] = Propofol-induced unconsciousness (TM) epoch
[10] = propofol-induced unconsciousness (PM)
[11] = propofol-induced unconsciousness (TM)

Cc1cccc([C@H](C)c2cnc[nH]2)c1C [dexmedetomidine]
Behavioral State (healthy volunteers [1]; Dexmedetomidine-induced unconsciousness epoch): Sedation
coherence of 0.1-1 Hz slow oscillations compared to propofol slow oscillations [2]: greater coherence
coherence of 8-12 Hz oscillations compared to propofol induced oscillations [2]: less coherence
coherence peak frequency (dex-spindle) (healthy volunteers [3]; [7]): 13.4 Hz and ~13 Hz
peak coherence (dex-spindle) (healthy volunteers [3]; [7]): 0.78±0.08
slow oscillation coherence compared to the awake-state (healthy volunteers [3]; [7]): non-significant decrease
frequency range where coherence was significantly larger than propofol-induced unconsciousness (PM) (healthy volunteers [3]; dexmedetomidine-induced unconsciousness vs propofol PM, FIG. 15B, P<0.0005, TGTC): 12.9-15.4 Hz
frequency range of decrease in coherence on coherogram (healthy volunteers [3]; dexmedetomidine-induced unconsciousness, FIG. 12B): 0.1-1 Hz
frequency range of significant differences in coherence vs baseline (healthy volunteers [3]; dexmedetomidine-induced unconsciousness, FIG. 12C, P<0.001, TGTC): 2.4-18.8 Hz
frequency range of increase in coherence on coherogram (healthy volunteers [3]; dexmedetomidine-induced unconsciousness, FIGS. 12A, 12B): 1-15 Hz
slow oscillation power (healthy volunteers [4]; [7]): −0.4 dB
frequency range where EEG power was larger than propofol-induced unconsciousness (TM) (healthy volunteers [4]; dexmedetomidine-induced unconsciousness vs propofol TM, P<0.0005, TGTS): 0.7-10 Hz
frequency range of increased power in spectrogram compared to baseline (healthy volunteers [4]; dexmedetomidine-induced unconsciousness, FIGS. 9A, 9B): 2-15 Hz
frequency range where EEG power was lower than baseline (healthy volunteers [4]; dexmedetomidine-induced unconsciousness, beta/gamma, P<0.001, TGTS): 21.2-40 Hz
dex-spindle oscillation peak frequency (EEG power) (healthy volunteers [4]; dexmedetomidine-induced unconsciousness, mean±std): 12.9 Hz and ~13 Hz

COC(=O)C(c1ccccc1)C1CCCCN1 (stereo not drawn) [methylphenidate]
minute ventilation [5]: increases minute ventilation

CC(C)c1cccc(C(C)C)c1O [propofol]
Behavioral State (healthy volunteers [1]; [8]): General
Probability of Response to Verbal Stimuli (%) mean (±SD) (healthy volunteers [1]; [8]): 0%
Behavioral State (healthy volunteers [1]; [9]): Sedation
Probability of Response to Verbal Stimuli (%) mean (±SD) (healthy volunteers [1]; [9]): 91.5 (15.4) %
alpha oscillation coherence peak frequency (healthy volunteers [3]; [10]): 10.8 Hz
alpha oscillation peak coherence (healthy volunteers [3]; [10]): 0.89±0.05
slow oscillation coherence compared to baseline (healthy volunteers [3]; [10]): non-significant decrease
frequency range of decrease in coherence on coherogram (healthy volunteers [3]; propofol-induced unconsciousness (PM), FIG. 13C): 0.1-1 Hz
frequency range of significant increase in coherence vs baseline (healthy volunteers [3]; propofol-induced unconsciousness (PM), FIG. 13E, P<0.0003, TGTC): 3.9-15.1 Hz
alpha oscillation coherence peak frequency (healthy volunteers [3]; propofol-induced unconsciousness (PM), listed as Propofol): ~10 Hz
broad frequency range of increase in coherence on coherogram (healthy volunteers [3]; [11]): 1-25 Hz
frequency range where coherence was larger than dexmedetomidine-induced unconsciousness (healthy volunteers [3]; propofol-induced unconsciousness (TM) vs dexmedetomidine, FIG. 15A, P<0.0005, TGTC): 17.3-25.9 Hz
frequency ranges where oscillations were coherent vs baseline (healthy volunteers [3]; propofol-induced unconsciousness (TM), FIG. 13D, P<0.0003, TGTC): 10.7-15.4 Hz and 17.3-25.9 Hz
propofol effect site concentrations over which the signature is stably maintained (healthy volunteers [4]; PM pattern): 3 to 5 µg/mL
frequency range where PM oscillations were significantly larger than TM (healthy volunteers [4]; propofol PM vs TM, FIG. 10F, P<0.0003, TGTS): 0.1-13.4 Hz
alpha oscillation peak frequency (EEG power) (healthy volunteers [4]; [10]): 10.8 Hz
frontal alpha oscillation peak power (healthy volunteers [4]; [10]): 1.1 dB
slow oscillation power (healthy volunteers [4]; [10]): 13.2 dB
amplitude of slow oscillations, PM relative to TM and the baseline state (healthy volunteers [4]; propofol-induced unconsciousness (PM) vs (TM)): approximately 6 fold
amplitude of alpha oscillations, propofol PM relative to dexmedetomidine spindle oscillations (healthy volunteers [4]; propofol-induced unconsciousness (PM) vs dexmedetomidine): approximately 3.9 fold
frequency range where EEG power was significantly larger than dexmedetomidine-induced unconsciousness (healthy volunteers [4]; propofol-induced unconsciousness (PM) vs dexmedetomidine, P<0.0005, TGTS): 0.1-40 Hz
frequency range where EEG power was significantly larger than baseline (healthy volunteers [4]; propofol-induced unconsciousness (PM), FIG. 10E, P<0.0003, TGTS): 0.1-40 Hz
broad-band frequency range of increased power in spectrogram (healthy volunteers [4]; [11]): 1-25 Hz
slow oscillation power (healthy volunteers [4]; [11]): −2.5 dB
frequency range where EEG power was larger than dexmedetomidine-induced unconsciousness (healthy volunteers [4]; propofol-induced unconsciousness (TM) vs dexmedetomidine, P<0.0005, TGTS): 14.9-40 Hz
propofol effect site concentrations over which the signature is stably maintained (healthy volunteers [4]; trough max (TM) pattern): 1 to 2 µg/mL
time after loss of consciousness to which the trough-max pattern extends (healthy volunteers [4]; trough-max pattern): ~10 min
time before loss of consciousness at which the trough-max pattern begins (healthy volunteers [4]; trough-max pattern): ~20 min

FCOC(C(F)(F)F)C(F)(F)F [sevoflurane]
macroscopic EEG dynamics during GA induced unconsciousness [6]: closely resemble those of propofol
